Measured values from patent US10391070B2, “Compositions and methods for treating neurological diseases or injury” (MUSC FOUNDATION FOR RESEARCH DEVELOPMENT, priority 2012, dated 2019).

Columns and labels:
[1] = system: maximal electroshock-induced seizures; test: Maximal electroshock test; assay type: in vivo, mouse; settings: mice; for animals protected/animals tested, 0.25 hr / animals protected/animals tested, 0.5 hr / animals protected/animals tested, 1.0 hr / animals protected/animals tested, 2.0 hr / animals protected/animals tested, 4.0 hr: 100 mg/kg i.p., maximal electroshock
Experimental: Mouse studies were performed by NIH Anticonvulsant Screening Program at the National Institute of Neurological Disorders and Stroke (Stables and Kupferberg, 1997) according to the established NIH experimental procedures outlined below. Compounds were delivered into mice by i.p. injection at a dose of 100 mg/kg in sterile 5% DMSO, 95% Neobee (Josey et al., 2013). One of four methods for seizure induction was subsequently administered to mice at 0.25, 0.5, 1, 2 and 4 h after treatment with compound. (1) Subcutaneous PTZ seizure threshold test. PTZ was administered at a concentration of 85 mg/kg, into the loose fold of skin in the midline of the neck. […] (2) Maximal electroshock test. 60 Hz of 50 mA alternating current was delivered for 0.2 s by corneal electrodes. Mice were considered protected from seizures when the hindlimb tonic extensor was absent (White et al., 1995). (3) Minimal clonic seizure (6 Hz) test. 6 Hz of 32 mA or 44 mA alternating current was delivered for 3 s by corneal electrodes to elicit a psychomotor seizure. Mice were considered protected from seizures when the automatistic behaviors were absent (Barton et al., 2001). (4) Corneal kindled mouse model. Mice were kindled electrically with a 3 s stimulation, 8 mA, 60 Hz, and corneal electrodes to a criterion of 10 consecutive Stage 5 seizures (facial clonus and head nodding progressing to forelimb clonus, and finally rearing and falling accompanied by a generalized clonic seizure as described by Racine, 1972). Animals generally reach Stage 5 after twice daily stimulation for 8 days. With continued stimulation once a day, animals usually progressed to a reproducible Stage 5 after 10-14 additional days. At least 72 hours after the mice were kindled, the test substance was administered i.p. and each animal was given the electrical stimulus indicated above. […] Treated animals not displaying a Stage 4 or 5 seizure were considered protected.
The data for each treatment is represented as the number of animals protected/number of animals tested.
The maximal electroshock-induced seizures (MES) test is a model for generalized tonic-clonic seizures and provides an indication of a compound's ability to prevent seizure spread when all neuronal circuits in the brain are maximally active. These seizures are highly reproducible and are electrophysiologically consistent with human seizures. An animal is considered “protected” from MES-induced seizures based on abolition of the hindlimb tonic extensor component of the seizure.

HT22 cells = test: Intracellular ROS measurement (Rho123, CM-H2DCFDA); assay type: cell-based, mouse; settings: HT22, 10 mM glutamate 8 hrs, 250 nM
Experimental: Intracellular generation of ROS was evaluated by spectrofluorometry using the membrane-permeable compound dihydrorhodamine 123 (Rho123; Invitrogen), and images were collected using 5-(and -6)-chloromethyl-2′,7′-dichlorodihydrofluorescein diacetate, acetyl ester (CM-H2DCFDA; Invitrogen). Briefly, HT-22 cells were seeded onto black walled 96-well plates at 5.0×10^3 cells per well in 75 μL of medium and maintained at 37° C. in 5% CO2 overnight prior to the initiation of experimental treatments. Cells were subsequently treated with 25 μL of medium containing glutamate (monosodium glutamate, Sigma, 1 M stock concentration in media, to achieve a final concentration of 10 mM) plus inhibitors (stock in DMSO) and maintained at 37° C. in 5% CO2. After 8 hrs, Rho123 (5 μM), CM-H2DCFDA (1 μM), or MitoSox (5 μM) and Mitotracker DR (10 nM) was added to achieve the indicated final concentrations. Cells were allowed to incubate for 20 minutes and then washed twice with Hanks Balanced Salt Solution (HBSS; Hyclone; CaCl2 1.26 mM, MgCl2-6H2O 0.493 mM, MgSO4-7H2O 0.407 mM, KCl 5.33 mM, KH2PO4 0.441 mM, NaHCO3 4.17 mM, NaCl 137.93 mM, Na2HPO4 0.338 mM, D-Glucose 5.56 mM), with a final addition of 100 μL of HBSS in which the cells were visualized. Fluorescence of the oxidized Rho123 was measured using a Fluoroskan Ascent spectrofluorometer (Labsystems). Peak excitation and emission wavelengths were 500 and 536, respectively. For fluorescent imaging of the oxidation product of CM-H2DCFDA, cells were immediately visualized using an InCell 2000 Analyzer (GE) with a 40× objective and a FITC excitation/emission filter set. Image processing was performed using ImageJ, and for all images, the microscope and image processing settings, such as levels, brightness, contrast, and exposure time were held constant across all treatment conditions.

[2] = Antioxidant activity assay (DPPH free radical scavenging); settings: 20 μM, 100 μM DPPH in methanol
Experimental: Antioxidant activity of various reagents was assayed as previously described by monitoring the disappearance of the optical absorbance of the stable-free radical DPPH on reaction with test compounds (Blois, 1958). The rate of the reaction represents the antioxidant potency of test agents. The known free radical scavenger Trolox and ascorbic acid were used as positive controls. Briefly, 10 μL of test reagents at final concentrations of 20 μM were added to 200 μL of 100 μM DPPH in methanol. Optical absorbance of DPPH at 517 nm was immediately monitored for 10 min.

Compound	anticonvulsant activity in maximal electroshock test [1]	animals protected/animals tested, 0.25 hr [1]	animals protected/animals tested, 0.5 hr [1]	animals protected/animals tested, 1.0 hr [1]	animals protected/animals tested, 2.0 hr [1]	animals protected/animals tested, 4.0 hr [1]	ROS accumulation (Rho123) (HT22 cells)	free radical scavenging capacity (DPPH absorbance) [2]
C#CCNC1=CC(=O)c2ccccc2C1=O [Compound 2h, 2-(prop-2-yn-1-ylamino)naphthalene-1,4-dione]	limited anticonvulsant activity	0/4	0/4	0/4	1/4	1/4	–	–
O=C1C=C(NCc2ccccc2)C(=O)c2ccccc21 [Compound 2j, 2-(benzylamino)naphthalene-1,4-dione]	limited anticonvulsant activity	0/4	0/4	0/4	2/4	0/4	prevent the accumulation of ROS	did not show direct antioxidant capacity
O=C1C=C(NCc2cccc(Cl)c2)C(=O)c2ccccc21 [Compound 2q, 2-((3-chlorobenzyl)amino)naphthalene-1,4-dione]	–	0/4	0/4	0/4	0/4	0/4	prevent the accumulation of ROS	did not show direct antioxidant capacity
menaquinones [VK2, reference compound]	–	–	–	–	–	–	less effective	did not show direct antioxidant capacity
